From patent US20100267561A1, “HERBICIDAL PYRIDAZINONE DERIVATIVES” (priority 2007, published 2010)

What was measured:
Test in all cases: Test B pre-/postemergence plant response
Assay type in all cases: in vivo
[1] = test system: common (oilseed) sunflower (Helianthus annuus); settings: Preemergence
Outline: (§1)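 Visual scoring from 0 (no effect) to 100 (complete control) against untreated controls was done 13 to 15 days after greenhouse treatment. Chemicals were formulated in a surfactant-containing non-phytotoxic solvent and applied to soil preemergence or to 1- to 4-leaf (2-18 cm) plants postemergence.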

[2] = test system: wheat (Triticum aestivum); settings: for Wheat plant response rating: 8 g ai/ha
Outline: as §1

[3] = test system: corn (Zea mays); settings: for Corn plant response rating: 8 g ai/ha
Outline: as §1

[4] = test system: blackgrass (Alopecurus myosuroides); settings: for Blackgrass plant response rating: 8 g ai/ha
Outline: as §1

[5] = test system: morningglory (Ipomoea coccinea); settings: for Morningglory plant response rating: 8 g ai/ha
Outline: as §1

[6] = test system: large crabgrass (Digitaria sanguinalis); settings: for Crabgrass, Large plant response rating: 8 g ai/ha
Outline: as §1

[7] = test system: downy bromegrass (Bromus tectorum); settings: for Bromegrass, Downy plant response rating: 8 g ai/ha
Outline: as §1

[8] = test system: lambsquarters (Chenopodium album); settings: for Lambsquarters plant response rating: 8 g ai/ha
Outline: as §1

[9] = test system: bermudagrass (Cynodon dactylon); settings: for Bermudagrass plant response rating: 8 g ai/ha
Outline: as §1

[10] = test system: velvetleaf (Abutilon theophrasti); settings: for Velvetleaf plant response rating: 8 g ai/ha
Outline: as §1

[11] = test system: green foxtail (Setaria viridis); settings: for Foxtail, Green plant response rating: 8 g ai/ha
Outline: as §1

[12] = test system: giant foxtail (Setaria faberii); settings: for Foxtail, Giant plant response rating: 8 g ai/ha
Outline: as §1

[13] = test system: catchweed bedstraw (Galium aparine); settings: Preemergence
Outline: as §1

[14] = test system: wild oat (Avena fatua); settings: for Oat, Wild plant response rating: 8 g ai/ha
Outline: as §1

[15] = 16 g ai/ha, scale 0 to 100 (0 no effect, 100 complete control)
[16] = 31 g ai/ha, 0 to 100 scale, 0 no effect, 100 complete control
[17] = Postemergence, 16 g ai/ha, scale 0 to 100
[18] = Postemergence, 62 g ai/ha, scale 0 to 100, 0 no effect, 100 complete control
[19] = Preemergence, 16 g ai/ha, scale 0 to 100 (0 no effect, 100 complete control)
[20] = Preemergence, 31 g ai/ha, 0 to 100 scale, 0 no effect, 100 complete control
[21] = Preemergence, 62 g ai/ha, scale 0 to 100
[22] = Postemergence, 31 g ai/ha, scale 0 to 100, 0 no effect, 100 complete control

CCc1cc(-c2ccc(Cl)cc2)nn1-c1c(OS(C)(=O)=O)cnn(C)c1=O [Compound 39]
80: Plant response rating, Wheat [2, 21] | Plant response rating, Corn [3, 19] | Plant response rating, Bromegrass, Downy [7, 18] | Plant response rating, Foxtail, Green [11, 17] | Foxtail, Green plant response rating ([11]; Preemergence, scale 0 to 100) | Foxtail, Giant plant response rating ([12]; postemergence, 0-100 scale)
30: Plant response rating, Wheat [2, 19] | Foxtail, Green plant response rating ([11]; postemergence, 0-100 scale)
20: Wheat plant response rating ([2]; postemergence, 0-100 scale) | Plant response rating, Wheat [2, 17]
100: Plant response rating, Corn [3, 18] | Plant response rating, Corn [3, 21] | Plant response rating, Blackgrass [4, 18] | Plant response rating, Crabgrass, Large [6, 18] | Plant response rating, Crabgrass, Large [6, 19] | Plant response rating, Crabgrass, Large [6, 20] | Plant response rating, Crabgrass, Large [6, 21] | Plant response rating, Foxtail, Green [11, 18] | Plant response rating, Foxtail, Green [11, 19] | Plant response rating, Foxtail, Green [11, 20] | Plant response rating, Foxtail, Green [11, 21] | Plant response rating, Foxtail, Giant [12, 22] | Plant response rating, Foxtail, Giant [12, 18] | Plant response rating, Foxtail, Giant [12, 19] | Plant response rating, Foxtail, Giant [12, 20] | Plant response rating, Foxtail, Giant [12, 21] | Foxtail, Giant plant response rating ([12]; Preemergence, scale 0 to 100) | Plant response rating, Oat, Wild [14, 22] | Plant response rating, Oat, Wild [14, 18]
5: Bromegrass, Downy plant response rating ([7]; postemergence, 0-100 scale)
0: Plant response rating, Sunflower [1, 15] | Plant response rating, Sunflower [1, 16] | Plant response rating, Sunflower ([1]; 62 g ai/ha, scale 0 to 100) | Sunflower plant response rating ([1]; 8 g ai/ha, scale 0 to 100) | Wheat plant response rating ([2]; Preemergence, scale 0 to 100) | Corn plant response rating ([3]; postemergence, 0-100 scale) | Blackgrass plant response rating ([4]; postemergence, 0-100 scale) | Plant response rating, Blackgrass [4, 17] | Morningglory plant response rating ([5]; postemergence, 0-100 scale) | Plant response rating, Morningglory [5, 17] | Plant response rating, Morningglory [5, 22] | Plant response rating, Morningglory [5, 18] | Plant response rating, Morningglory [5, 19] | Plant response rating, Morningglory [5, 20] | Plant response rating, Morningglory [5, 21] | Morningglory plant response rating ([5]; Preemergence, scale 0 to 100) | Bromegrass, Downy plant response rating ([7]; Preemergence, scale 0 to 100) | Lambsquarters plant response rating ([8]; postemergence, 0-100 scale) | Plant response rating, Lambsquarters [8, 17] | Plant response rating, Lambsquarters [8, 22] | Plant response rating, Lambsquarters [8, 18] | Plant response rating, Lambsquarters [8, 19] | Plant response rating, Lambsquarters [8, 20] | Plant response rating, Lambsquarters [8, 21] | Lambsquarters plant response rating ([8]; Preemergence, scale 0 to 100) | Bermudagrass plant response rating ([9]; postemergence, 0-100 scale) | Bermudagrass plant response rating ([9]; Preemergence, scale 0 to 100 (0 no effect, 100 complete control)) | Velvetleaf plant response rating ([10]; postemergence, 0-100 scale) | Plant response rating, Velvetleaf [10, 17] | Plant response rating, Velvetleaf [10, 18] | Plant response rating, Velvetleaf [10, 19] | Plant response rating, Velvetleaf [10, 20] | Plant response rating, Velvetleaf [10, 21] | Velvetleaf plant response rating ([10]; Preemergence, scale 0 to 100) | Plant response rating, Galium [13, 15] | Plant response rating, Galium [13, 16] | Plant response rating, Galium ([13]; 62 g ai/ha, scale 0 to 100) | Galium plant response rating ([13]; 8 g ai/ha, scale 0 to 100)
95: Plant response rating, Blackgrass [4, 22] | Plant response rating, Bermudagrass [9, 18] | Plant response rating, Bermudagrass [9, 20] | Oat, Wild plant response rating ([14]; postemergence, 0-100 scale) | Plant response rating, Oat, Wild [14, 17] | Plant response rating, Oat, Wild [14, 21]
70: Plant response rating, Wheat [2, 20] | Crabgrass, Large plant response rating ([6]; postemergence, 0-100 scale) | Plant response rating, Bromegrass, Downy [7, 19] | Oat, Wild plant response rating ([14]; Preemergence, scale 0 to 100)
60: Crabgrass, Large plant response rating ([6]; Preemergence, scale 0 to 100) | Plant response rating, Bermudagrass [9, 17]
40: Blackgrass plant response rating ([4]; Preemergence, scale 0 to 100)
90: Plant response rating, Blackgrass [4, 19] | Plant response rating, Blackgrass [4, 20] | Plant response rating, Blackgrass [4, 21] | Plant response rating, Crabgrass, Large [6, 17] | Plant response rating, Bermudagrass [9, 19] | Plant response rating, Oat, Wild [14, 19] | Plant response rating, Oat, Wild [14, 20]
85: Plant response rating, Corn [3, 17] | Plant response rating, Bromegrass, Downy [7, 20] | Plant response rating, Bromegrass, Downy [7, 21] | Plant response rating, Foxtail, Green [11, 22]
75: Plant response rating, Bermudagrass [9, 22]
10: Plant response rating, Bromegrass, Downy [7, 17]
98: Plant response rating, Wheat [2, 18] | Plant response rating, Corn [3, 22] | Plant response rating, Corn [3, 20] | Plant response rating, Crabgrass, Large [6, 22] | Plant response rating, Bermudagrass [9, 21] | Plant response rating, Foxtail, Giant [12, 17]
65: Corn plant response rating ([3]; Preemergence, scale 0 to 100)
45: Plant response rating, Bromegrass, Downy [7, 22]
